Residues, ends and D or L forms follow the SMILES beside them.
Assays:
[1] = in vivo; conditions: for level at 4 h / level at 8 h / level at 0.5 h / level at 1 h / level at 3 h / level at 12 h: Cross species PK, concentration (Fig 6 source data)
Protocol: The studies were performed at Fidelta Ltd, Croatia (mice), under review by the institutional ethics committee (CARE-Zg), and Covance Laboratories UK and Muenster Germany (cynomolgus monkey and minipig) in accordance with the requirements of the Animals (Scientific Procedures) Act 1989 and a maintained local ethical review. All studies were contracted by Adenium Biotech ApS. Mice were housed in polysulfone cages with an acclimatization period of 7 days prior to experiments with air temperature maintained at 22 °C with 55% humidity and light–dark cycles of 12 h light. Cynomolgus monkeys of age range 4–7 years were selected, tested for health, acclimatized for 2 weeks, and housed in single-animal climate controlled stainless-steel cages with a minimum of 8 air changes per hour with air temperature at 19–25 °C and relative humidity 40–70%, and light–dark cycles of 12 h light. Minipigs of age range 4–6 months were selected, tested for health, acclimatized for 2 weeks, and housed in single-animal pens with 15–20 air changes per hour with air temperature at 22–26 °C with light–dark cycles of 12 h light.
Mouse, monkey, and minipig i.v. 2-h infusion: AA139 formulated in Ringer’s acetate was administered intravenously to CD1 mice, cynomolgus monkeys (Macaca fascicularis) and Göttingen A/S minipigs (Ellegaard Göttingen, Denmark) by continuous infusion over 2 h (minipig under anesthesia). Individual dose volumes were based on individual body weight. Blood samples were collected at 0.5, 1, 2, 3, 4, 8, 10, and 12 h after the start of the infusion (n = 6 mice, male and female combined; n = 2 monkeys, one male and one female; n = 2 minipigs, one male and one female). Bioanalytical analysis was performed by SPE followed by LC–MS/MS. The method was validated for an AA139 concentration range of 43.4–21,700 ng mL^−1. Pharmacokinetic parameters were calculated by standard non-compartmental analysis (NCA) using Phoenix WinNonlin version 6.2. The studies were conducted in compliance with Good Laboratory Practice (GLP) regulations.

[2] = test system: E. coli; conditions: E. coli MDR/ESBL; after 20 passages + 3 drug-free passages
[3] = in vivo; conditions: both, mouse, plasma, inhaled or intranasal; for AUC(0-t) / Cmax: Plasma, mice
[4] = In vivo toxicity and safety pharmacology, i.v./i.p./s.c.
[5] = Göttingen, minipig, in vivo, iv, minipig 2h i.v. infusion, replicate 1
[6] = Göttingen, minipig, in vivo, iv, minipig 2h i.v. infusion, replicate 2
[7] = both, Göttingen, minipig, in vivo, iv, 10 mg kg-1
[8] = both, cynomolgus monkey, in vivo, iv, 10 mg kg-1
[9] = cynomolgus monkey, in vivo, iv, monkey 2h i.v. infusion, replicate 1
[10] = cynomolgus monkey, in vivo, iv, monkey 2h i.v. infusion, replicate 2
[11] = cynomolgus monkey, in vivo, iv, monkey 2h i.v. infusion, replicate 3
[12] = cynomolgus monkey, in vivo, iv, monkey 2h i.v. infusion, replicate 4
[13] = 5 mg kg-1/day, Day 1, 5 mg kg-1/day, 2 hour daily inhalation
[14] = 5 mg kg-1/day, Day 7, 5 mg kg-1/day, inhalation
[15] = 40 mg kg-1/day, Day 1, 40 mg kg-1/day, inhalation

CC(C)[C@@H]1NC(=O)[C@H](Cc2ccc(O)cc2)NC(=O)[C@H](Cc2c[nH]c3ccccc23)NC(=O)[C@@H](NC(=O)[C@H](Cc2ccccc2)NC(=O)CN)CSSC[C@@H](C(=O)N[C@@H](CC(N)=O)C(=O)O)NC(=O)[C@H](CCCNC(=N)N)NC(=O)[C@H](CCCNC(=N)N)NC(=O)[C@H](Cc2ccc(O)cc2)NC(=O)[C@@H]2CSSC[C@H](NC1=O)C(=O)N[C@@H](C)C(=O)N[C@@H](CCCNC(=N)N)C(=O)N[C@@H](CCCNC(=N)N)C(=O)N[C@@H](CC(N)=O)C(=O)NCC(=O)N[C@@H](C)C(=O)N[C@@H](CCCNC(=N)N)C(=O)N[C@@H](C(C)C)C(=O)N2 [AA139] (HELM PEPTIDE1{G.F.C.W.Y.V.C.A.R.R.N.G.A.R.V.C.Y.R.R.C.N}$PEPTIDE1,PEPTIDE1,3:R3-20:R3|PEPTIDE1,PEPTIDE1,7:R3-16:R3$$$V2.0)
level at 4 h [1, 5]: 2850 ng/mL | level at 4 h [1, 6]: 3110 ng/mL | level at 8 h [1, 5]: 1510 ng/mL | level at 8 h [1, 6]: 1240 ng/mL | Vd [1, 7]: 1.2 L/kg | half-life [1, 7]: 186 min | level at 0.5 h ([1]; both, Göttingen, minipig, in vivo, iv, minipig 2h i.v. infusion, time 0.5 h, replicate 1): 4830 ng/mL | level at 1 h ([1]; both, Göttingen, minipig, in vivo, iv, minipig 2h i.v. infusion, time 1 h, replicate 2): 6780 ng/mL | level at 3 h ([1]; both, Göttingen, minipig, in vivo, iv, minipig 2h i.v. infusion, replicate 1): 4100 ng/mL | level at 3 h ([1]; both, Göttingen, minipig, in vivo, iv, minipig 2h i.v. infusion, replicate 2): 5080 ng/mL | AUC(0-inf) [1, 8]: 40800 ng·h/mL | Vd [1, 8]: 0.87 L/kg | half-life [1, 8]: 144 min | level at 0.5 h ([1]; both, cynomolgus monkey, in vivo, iv, monkey 2h i.v. infusion, time 0.5 h, replicate 2): 6540 ng/mL | level at 0.5 h ([1]; both, cynomolgus monkey, in vivo, iv, monkey 2h i.v. infusion, time 0.5 h, replicate 3): 7630 ng/mL | level at 0.5 h ([1]; both, cynomolgus monkey, in vivo, iv, monkey 2h i.v. infusion, time 0.5 h, replicate 4): 13500 ng/mL | level at 1 h ([1]; both, cynomolgus monkey, in vivo, iv, monkey 2h i.v. infusion, time 1 h, replicate 1): 9000 ng/mL | level at 1 h ([1]; both, cynomolgus monkey, in vivo, iv, monkey 2h i.v. infusion, time 1 h, replicate 2): 9340 ng/mL | level at 1 h ([1]; both, cynomolgus monkey, in vivo, iv, monkey 2h i.v. infusion, time 1 h, replicate 3): 8480 ng/mL | level at 3 h ([1]; both, cynomolgus monkey, in vivo, iv, monkey 2h i.v. infusion, replicate 1): 5390 ng/mL | level at 3 h ([1]; both, cynomolgus monkey, in vivo, iv, monkey 2h i.v. infusion, replicate 2): 5440 ng/mL | level at 3 h ([1]; both, cynomolgus monkey, in vivo, iv, monkey 2h i.v. infusion, replicate 3): 4440 ng/mL | level at 3 h ([1]; both, cynomolgus monkey, in vivo, iv, monkey 2h i.v. infusion, replicate 4): 6120 ng/mL | level at 4 h [1, 9]: 3590 ng/mL | level at 4 h [1, 10]: 3930 ng/mL | level at 4 h [1, 11]: 2240 ng/mL | level at 4 h [1, 12]: 2830 ng/mL | level at 8 h [1, 9]: 1270 ng/mL | level at 8 h [1, 10]: 1290 ng/mL | level at 8 h [1, 11]: 2720 ng/mL | level at 8 h [1, 12]: 2460 ng/mL | level at 12 h [1, 11]: 860 ng/mL | level at 12 h [1, 12]: 802 ng/mL | Cross species PK, concentration (Fig 6 source data) ([1]; minipig 2h i.v. infusion, time 0.5 h, replicate 2): 6298 | Cross species PK, concentration (Fig 6 source data) ([1]; minipig 2h i.v. infusion, time 1 h, replicate 1): 4846 | Cross species PK, concentration (Fig 6 source data) ([1]; minipig 2h i.v. infusion, time 2 h, replicate 1): 7751 | Cross species PK, concentration (Fig 6 source data) ([1]; minipig 2h i.v. infusion, time 2 h, replicate 2): 9612 | Cross species PK, concentration (Fig 6 source data) ([1]; monkey 2h i.v. infusion, time 0.5 h, replicate 1): 6780 | Cross species PK, concentration (Fig 6 source data) ([1]; monkey 2h i.v. infusion, time 1 h, replicate 4): 15900 | Cross species PK, concentration (Fig 6 source data) ([1]; monkey 2h i.v. infusion, time 2 h, replicate 1): 8610 | Cross species PK, concentration (Fig 6 source data) ([1]; monkey 2h i.v. infusion, time 2 h, replicate 2): 11100 | Cross species PK, concentration (Fig 6 source data) ([1]; monkey 2h i.v. infusion, time 2 h, replicate 3): 21300 | Cross species PK, concentration (Fig 6 source data) ([1]; monkey 2h i.v. infusion, time 2 h, replicate 4): 6780 | Final MIC [2]: 1 µg/mL | Tmax ([3]; 5 mg kg-1/day): 18 min | AUC(0-t) [3, 13]: 262 ng·h/mL | AUC(0-t) [3, 14]: 85 ng·h/mL | Cmax [3, 13]: 122 ng/mL | Cmax [3, 14]: 64 ng/mL | Tmax ([3]; 20 mg kg-1/day): 18 min | Cmax ([3]; 20 mg kg-1/day, Day 1, 20 mg kg-1/day, inhalation): 952 ng/mL | Cmax ([3]; 20 mg kg-1/day, Day 7, 20 mg kg-1/day, inhalation): 467 ng/mL | Tmax ([3]; 40 mg kg-1/day): 18 min | AUC(0-t) [3, 15]: 4540 ng·h/mL | Cmax [3, 15]: 2460 ng/mL | NOAEL in mice ([4]; 7-day or 14-day repeated 2 h i.v. infusion once or twice daily): 20 mg kg^−1 per day | MTD ([4]; mouse, in vivo, ip): 20 mg/kg | MTD ([4]; mouse, in vivo, iv): 15 mg/kg | MTD at 168 h ([4]; mouse, in vivo, iv): 25 mg/kg | AUC(0-t) ([4]; mouse, in vivo, iv, 20 mg/kg): 28000 ng·h/mL | Cmax ([4]; mouse, in vivo, iv, 20 mg/kg, Cmax, Mouse, 14-day iv toxicity, GLP, TK dose 20 mg/kg, Day 1): 11600 ng/mL | Cmax ([4]; mouse, in vivo, iv, 20 mg/kg, Cmax, Mouse, 14-day iv toxicity, GLP, TK dose 20 mg/kg, Day 14): 9600 ng/mL | AUC(0-inf) ([4]; mouse, in vivo, iv, 29 mg/kg): 43800 ng·h/mL | Cmax ([4]; mouse, in vivo, iv, 29 mg/kg): 7500 ng/mL | NOAEL at 168 h ([4]; mouse, in vivo, iv, NOAEL, 7-day iv MTD, IV 2-h infusion, doses 20, 25, 30): 20 mg/kg | NOAEL at 336 h ([4]; mouse, in vivo, iv, NOAEL, 14-day iv toxicity, GLP, IV 2-h infusion, 0, 10, 15, 20 BID): 40 mg/kg/day | NOAEL ([4]; mouse, in vivo, iv, NOAEL, CNS & respiratory safety pharmacology iv, IV 2-h infusion, doses 0, 15, 20, 25): 20 mg/kg | NOAEL ([4]; mouse, in vivo, iv, NOAEL, single-dose iv MTD, doses 0, 5, 7.5, 10, 15, 20): 5 mg/kg | MTD ([4]; mouse, in vivo, sc, 100 mg/kg): 100 mg/kg
